# Legend:
# [1] = system: Enterococcus faecalis (Isolate ID ATCC 29212); test: Antibacterial activity, MIC, E. faecalis; assay type: cell-based; conditions: Enterococcus faecalis, ATCC29212; Gram positive strain; broth microdilution or agar dilution
# Description: Bacterial Assay: Determination of Antibacterial Activity
# Compounds of the invention were tested for antimicrobial activity by susceptibility testing in liquid or on solid media. MICs for compounds against each strain were determined by the broth microdilution or agar dilution method according to the guidelines of the Clinical Laboratories and Standards Institute, formerly the National Committee for Clinical Laboratory Standards (Clinical Laboratories and Standards Institute. Methods for Dilution Antimicrobial Susceptibility Tests for Bacteria That Grow Aerobically; Approved Standard—Seventh Edition. Document M7-A7. CLSI, Wayne, Pa., 2006; Clinical Laboratories and Standards Institute. The gram positive bacterial strains tested include S. aureus (Staphylococcus aureus (Isolate ID ATCC 29213)), E. faecalis (Enterococcus faecalis (Isolate ID ATCC 29212)) and S. pyogenes (Streptococcus pyogenes (Isolate ID ATCC 51339)). The gram negative bacterial strains tested include H. influenzae (Haemophilus influenzae (Isolate ID ATCC 49247))
# [2] = system: Staphylococcus aureus (Isolate ID ATCC 29213); test: Antibacterial activity, MIC, S. aureus; assay type: cell-based; conditions: Staphylococcus aureus, ATCC29213, Gram positive strain; broth microdilution or agar dilution
# Outline: (§1)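 CLSI-guided dilution susceptibility testing (broth or agar) gave the MIC for each strain.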
# [3] = system: Haemophilus influenzae (Isolate ID ATCC 49247); test: Antibacterial activity, MIC, H. influenzae; assay type: cell-based; conditions: Haemophilus influenzae, ATCC49247; Gram negative strain; broth microdilution or agar dilution
# Outline: as §1
# physchem = conditions: pH 7.4, aqueous buffer, kinetic from dmso stock
# Outline: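 DMSO doubling dilutions were diluted twenty-fold into 100 mM citrate (pH 4), PBS (pH 7.4) or carbonate-bicarbonate (pH 9). After 24 h equilibration at room temperature, absorbance was read at 620 nm. The reported value is the highest concentration without measurable precipitate.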
# [4] = system: Streptococcus pyogenes (Isolate ID ATCC 51339); test: Antibacterial activity, MIC, S. pyogenes; assay type: cell-based; conditions: Streptococcus pyogenes, ATCC51339, Gram positive strain; broth microdilution or agar dilution
# Outline: as §1
SMILES,MIC [1] [µg/mL],MIC [2] [µg/mL],MIC [3] [µg/mL],solubility at 24 h (physchem; Solubility (pH 7.4)) [µg/mL],solubility at 24 h (physchem; Solubility Range) [µg/mL],MIC [4] [µg/mL],solubility at 24 h (physchem; Max Solubility) [µg/mL],solubility at 24 h (physchem; Solubility Range (maximum solubility)) [µg/mL]
CCNC(=O)Nc1nc2cc(-c3cnc(N4CCC(C)(C(=O)O)CC4)nc3)cc(-c3nccc(OC)n3)c2s1 [Compound 8],≤ 0.25,≤ 0.25,1 to 16,100,12.5 to 400,≤ 0.25,,
CCNC(=O)Nc1nc2cc(-c3cnc(N4CCC(C)(C(=O)O)C(C)C4)nc3)cc(-c3ccccn3)c2s1 (centres unmarked) [Compound 9],≤ 0.25,≤ 0.25,1 to 16,≥ 800,> 800,≤ 0.25,,
CCNC(=O)Nc1nc2cc(-c3cnc(N4CCC(C)(C(=O)O)CC4)nc3)cc(-c3cc(F)ccn3)c2s1 [Compound 10],≤ 0.25,≤ 0.25,1 to 16,100,12.5 to 400,≤ 0.25,,
CCNC(=O)Nc1nc2cc(-c3cnc(N4CCC(C)(C(=O)O)CC4)nc3)cc(-c3cnccn3)c2s1 [Compound 11],≤ 0.25,≤ 0.25,1 to 16,≥ 800,> 800,≤ 0.25,,
CCNC(=O)Nc1nc2cc(-c3cnc(N4CCC(C)(C(=O)O)CC4)nc3)cc(-c3nccc(C)n3)c2s1 [Compound 12],≤ 0.25,≤ 0.25,1 to 16,≥ 800,> 800,≤ 0.25,,
CCNC(=O)Nc1nc2cc(-c3cnc(N4CCC(C)(C(=O)O)CC4)nc3)cc(-c3ncccc3C#N)c2s1 [Compound 13],≤ 0.25,≤ 0.25,1 to 16,100,12.5 to 400,≤ 0.25,,
CCNC(=O)Nc1nc2cc(-c3cnc(N4CCC(C)(C(=O)O)CC4)nc3)cc(-c3ccc(C#N)cn3)c2s1 [Compound 14],≤ 0.25,≤ 0.25,0.25 to 1,≥ 800,> 800,≤ 0.25,,
CCNC(=O)Nc1nc2cc(-c3cnc(N4CCC(C)(C(=O)O)CC4)nc3)cc(-c3cc(OC)ncn3)c2s1 [Compound 15],≤ 0.25,≤ 0.25,0.25 to 1,≥ 800,> 800,≤ 0.25,,
CCNC(=O)Nc1nc2cc(-c3cnc(N4CCC(C)(C(=O)O)CC4)nc3)cc(-c3cc(C#N)ccn3)c2s1 [Compound 16],≤ 0.25,≤ 0.25,1 to 16,6.25,< 12.5,≤ 0.25,,
CCNC(=O)Nc1nc2cc(-c3cnc(N4CCC(C)(C(=O)O)CC4)nc3)cc(-c3cc(OC)ccn3)c2s1 [Compound 17],≤ 0.25,≤ 0.25,0.25 to 1,≥ 800,> 800,≤ 0.25,,
CCNC(=O)Nc1nc2cc(-c3cnc(N4CCC(C)(C(=O)O)CC4)nc3)cc(-c3ncccc3F)c2s1 [Compound 18],≤ 0.25,≤ 0.25,1 to 16,≥ 800,> 800,≤ 0.25,≥ 800,> 800
CCNC(=O)Nc1nc2cc(-c3cnc(N4CCC(C)(C(=O)O)CC4)nc3)cc(-c3ncco3)c2s1 [Compound 19],≤ 0.25,0.25 to 1,1 to 16,≥ 800,> 800,≤ 0.25,,
CCNC(=O)Nc1nc2cc(-c3cnc(N4CCC(C)(C(=O)O)CC4)nc3)cc(-c3cncs3)c2s1 [Compound 20],≤ 0.25,0.25 to 1,1 to 16,≥ 800,> 800,≤ 0.25,,
CCCCC#Cc1cc(-c2cnc(N3CCC(C)(C(=O)O)CC3)nc2)cc2nc(NC(=O)NCC)sc12 [Compound 22],≤ 0.25,0.25 to 1,> 16,≥ 800,> 800,1 to 16,,
"CCNC(=O)Nc1nc2cc(-c3cnc(N4CCC(C)(C(=O)O)CC4)nc3)cc(-c3csc(OC)n3)c2s1 [Compound 23, 1-[5-[2-(ethylcarbamoylamino)-7-(2-methoxythiazol-4-yl)-1,3-benzothiazol-5-yl]pyrimidin-2-yl]-4-methyl-piperidine-4-carboxylic acid]",≤ 0.25,≤ 0.25,1 to 16,≥ 800,> 800,≤ 0.25,,
CCNC(=O)Nc1nc2cc(-c3cnc(N4CCC(C)(C(=O)O)CC4)nc3)cc(-c3cnn(C)c3)c2s1 [Compound 24],≤ 0.25,1 to 16,1 to 16,≥ 800,> 800,0.25 to 1,,
CCNC(=O)Nc1nc2cc(-c3cnc(N4CCC(C)(C(=O)O)CC4)nc3)cc(-c3cn[nH]c3)c2s1 [Compound 25],0.25 to 1,> 16,> 16,≥ 800,> 800,0.25 to 1,,
"CCNC(=O)Nc1nc2cc(-c3cnc(N4CCC(C)(C(=O)O)CC4)nc3)cc(O)c2s1 [Compound 26, 1-[5-[2-(ethylcarbamoylamino)-7-hydroxy-1,3-benzothiazol-5-yl]pyrimidin-2-yl]-4-methyl-piperidine-4-carboxylic acid]",1 to 16,> 16,> 16,≥ 800,> 800,1 to 16,,
CCNC(=O)Nc1nc2cc(-c3cnc(N4CCC(C)(C(=O)O)CC4)nc3)cc(-c3nc(CO)cs3)c2s1 [Compound 27],≤ 0.25,1 to 16,1 to 16,≥ 800,> 800,≤ 0.25,,
C#Cc1cc(-c2cnc(N3CCC(C)(C(=O)O)CC3)nc2)cc2nc(NC(=O)NCC)sc12 [Compound 28],≤ 0.25,0.25 to 1,1 to 16,≥ 800,> 800,0.25 to 1,,
CCNC(=O)Nc1nc2cc(-c3cnc(N4CCC(C)(C(=O)O)CC4)nc3)cc(-n3cccn3)c2s1 [Compound 29],≤ 0.25,0.25 to 1,1 to 16,≥ 800,> 800,0.25 to 1,,
CCNC(=O)Nc1nc2cc(-c3cnc(N4CCC(C)(C(=O)O)CC4)nc3)cc(-c3cccn3C)c2s1 [Compound 30],≤ 0.25,0.25 to 1,1 to 16,≥ 800,> 800,0.25 to 1,,

# — patent US9181234B2, “Antibacterial compounds” (priority 2010, dated 2015)
